Marks after values point to notes of the source that are not given here. Ends that are not written are not given here.
Experiments:
[1] = test system: visceral fat and subcutaneous fat of mice; assay: Storage of visceral fat and subcutaneous fat of mice provided with high fat feed; assay type: in vivo
Description: 1) Providing an intraperitoneal administration to the high-fat-fed obese mice for 12 weeks according to the experimental procedure of Embodiment 3;
2) Fasting the mice of each group for 12 hours, and then anesthetizing with 3% pentobarbital sodium having a concentration of 45 mg/kg via intraperitoneal injection, and accurately weighing the mice;
3) Disinfecting routinely and performing laparotomy, rapidly extracting and weighing the adipose tissue around the kidney, adipose tissue around the mesentery, adipose tissue around the epididymis, and abdominal subcutaneous adipose tissue to obtain wet weights thereof (the abdominal subcutaneous adipose tissue range: abdomen below the rib arch and above the groin, both sides are bounded by the midaxillary line);
4) Calculating according to the following formula: wet weight of the abdominal adipose; total weight of the fat pad (g)=adipose tissue around the kidney+adipose tissue around the epididymis; body fat content=the total weight of the fat pad (g)/the total body weight of mice (g);

[2] = Inhibition of weight gain of mice fed with high-fat feed; assay type: in vivo
Source text: Experimental Animals: 3-4 weeks old male mice and feed provided by the Laboratory Animal Center of Nanjing Medical University, license No.: SCXK (Su) 2011-0003. The animals were randomly caged, with unlimited drink and feed. Experimental drugs: polypeptide-verbascoside-nanogold particle derivative (adipose tissue-targeting), polypeptide-verbascoside derivative, polypeptide-nanogold derivative, and verbascoside-nanogold derivative as experimental groups, and physiological saline for negative control. 2) Raising 60 male mice of 6 weeks old in the clean environment of Experimental Animal Center of Nanjing Medical University, at a temperature of (21±2) ° C., a humidity of (35±2) %, an intermittent illumination for 12 hours, with unlimited drink and feed; wherein the drinking water is distilled water prepared by the experimental animal center; 3) After 2-3 days of adaptive feeding, randomly selecting 10 mice as a blank control group provided with regular feed, while providing the remaining 50 rice with high fat feed (cholesterol 1 wt. %, lard 20 wt. %, bile salt 0.2 wt. %, and regular feed 78.8 wt. %); measuring the body weight of the mice in the two groups every 2 weeks; analyzing the obtained body weight data with statistical methods, and the results are shown in FIG. 3, wherein *P<0.05, **P<0.01, and ***P<0.001 indicate body weight data of the experimental group compared with those of the blank control group fed with regular feed; 4) Randomly dividing the obese mice fed with high-fat feed into several groups, with each group of 10 mice; injecting (exemplified by intraperitoneal injection) physiological saline (0.03 mL of physiological saline per 30 g body weight), polypeptide-verbascoside derivative (15 mg of derivative per kg body weight, dissolved in DMSO), polypeptide-nanogold derivative (15 mg of derivative per kg body weight, dissolved in DMSO), verbascoside-nanogold derivative (15 mg of derivative per kg body weight, dissolved in DMSO), and polypeptide-verbascoside-nanogold particle derivative (15 mg of derivative per kg body weight, dissolved in DMSO) at 9:30 am every day, respectively.

[3] = high fat feed mice, 15 mg/kg i.p. daily for 12 weeks, wet weight

polypeptide-verbascoside: ester of adipose tissue-targeting polypeptide CKGGRAKDC (C-terminal acyl chloride) with verbascoside sodium phenolate, per Embodiment 1 (not fully specified (C-terminus); cysteine pairing not given here)
Body weight ([1]; Table 3, high fat feed mice, 12 weeks, after 12 h fasting): 35.46 ± 1.57 g | Body weight ([1]; Table 4, high fat feed mice, 12 weeks): 35.26 ± 1.77 g | SF-FAT ([1]; abdominal subcutaneous fat, high fat feed mice, 12 weeks): 0.79 ± 0.12 g | Total weight of the fat pad ([1]; adipose tissues around kidney + around epididymis, high fat feed mice, 12 weeks): 2.27 ± 0.14 g | wet weight of the visceral adipose tissues of mice ([1]; after treatment, compared with the model control group (#p<0.05)): significantly reduced | Total weight of visceral adipose tissues ([1]; high fat feed mice, 15 mg/kg i.p. daily for 12 weeks, Table 2): 5.72 ± 0.17 g | Weight of visceral adipose tissues: Around epididymis [1, 3]: 1.21 ± 0.12 g | Weight of visceral adipose tissues: Around kidney [1, 3]: 0.61 ± 0.17 g | Weight of visceral adipose tissues: Around omentum and mesentery [1, 3]: 0.32 ± 0.05 g | SF-FAT/body weight ([1]; high fat feed mice, 12 weeks): 2.27 ± 0.23 | VF-FAT/SF-FAT ([1]; high fat feed mice, 12 weeks): 2.63 ± 0.29 | Body fat index ([1]; total weight of the fat pad / total body weight, high fat feed mice, 12 weeks): 6.13 ± 0.41 % | VF-FAT ([1]; visceral fat, Table 4, high fat feed mice, 12 weeks): 5.78 ± 0.17 g | Weight 6 weeks after administration ([2]; high fat feed mice, 15 mg/kg intraperitoneal injection every day, 6 weeks, n=10): 30.6 ± 0.3 g | Weight 12 weeks after administration ([2]; high fat feed mice, 15 mg/kg intraperitoneal injection every day, 12 weeks, n=10): 35.5 ± 1.6 g | Initial Weight ([2]; high fat feed obese mice, before administration (baseline), n=10): 29.3 ± 0.5** g | weight gains of mice ([2]; treatment for 6 weeks, compared with the model control group (#p<0.05)): significantly inhibited
